From patent US20200078468A1, “NEUROTENSIN RECEPTOR BINDING CONJUGATES AND FORMULATIONS THEREOF” (priority 2016, published 2020)
Numbered stars: 1 amine (or outer) side, 2 acyl side, 3 side chain; on linkers, the order of the positions; unused ones are H or OH. Bridge positions count the residues as written; N and C are the ends. Square brackets hold non-standard residues; d marks the D form. Peptide text beside a SMILES is read from it. I, II: the chains in the order shown. * marks the point of attachment. SN38(20-O) = CCc1c2c(nc3ccc(O)cc13)-c1cc3c(c(=O)n1C2)COC(=O)[C@@]3(CC)O*; Hexanoyl(6-succinimido-3yl) = O=C1CC([*:1])C(=O)N1CCCCCC(=O)[*:2]; NMeR = CN[C@@H](CCCNC(=N)N)C(=O)O; Pen = CC(C)(S)[C@H](N)C(=O)O; Tle = CC(C)(C)[C@H](N)C(=O)O

tested on: SW48 (human colon cancer cells); test: inhibition of SW48 cell proliferation (CellTiter Glo); type: cell-based; conditions: NTSR1 scrambled compound; 72 hrs; read-out: SW-48 proliferation IC50
Method: Conjugates were assessed in an in vitro assay evaluating inhibition of cell proliferation. SW48 (human colon cancer cells, ATCC®), cells were plated in 96 well, flat-bottomed plates (Costar) at a concentration of 5,000 cells/well. Cells were then incubated at 37° C. with 5% CO2 for 24 hrs. After 24 hrs, cells were treated with 0.01% DMSO or compound. Compounds were added at a starting dose of 10 μM and three fold serial dilutions were done for a total often points. Following compound addition, cells were incubated at 37° C. with 5% CO2 for 72 hrs. Proliferation was measured by CellTiter Glo reagent using the standard protocol (Promega) and a Glomax multi+detection system (Promega). Percent proliferation inhibition was calculated using the following formula: % inhibition=(control−treatment)/control*100. Control is defined as vehicle alone. IC50 curves were generated using the nonlinear regression analysis (four parameter) with GraphPad Prism 6.
Conjugates are assessed for receptor-dependent cytotoxicity by the difference between an NTSR1-targeting conjugate, and the corresponding conjugate with the same linker moiety and active agent where the NTSR1-targeting domain has been scrambled.

`CC[C@H](C)[C@@H]([C@@H](CC(=O)N1CCC[C@H]1[C@H](OC)[C@@H](C)C(=O)N[C@H](C)[C@@H](O)c1ccccc1)OC)N(C)C(=O)[C@@H](NC(=O)[C@H](C(C)C)N(C)C(=O)OCc1ccc(NC(=O)[C@H](CCCNC(N)=O)NC(=O)[C@@H](NC(=O)CCCCCN2C(=O)CC(SCCC(=O)NCCOCCOCCOCCOCCC(=O)NCCCC[C@H](NC(C)=O)C(=O)N3CCC[C@H]3C(=O)N[C@@H](CC(C)C)C(=O)N3CCC[C@H]3C(=O)N(C)[C@@H](CCCNC(=N)N)C(=O)N[C@H](C(=O)N[C@@H](CCCNC(=N)N)C(=O)N[C@@H](Cc3ccc(O)cc3)C(=O)O)C(C)(C)C)C2=O)C(C)C)cc1)C(C)C` (some centres unmarked) [Compound 95] and `CC[C@H](C)[C@@H]([C@@H](CC(=O)N1CCC[C@H]1[C@H](OC)[C@@H](C)C(=O)N[C@H](C)[C@@H](O)c1ccccc1)OC)N(C)C(=O)[C@@H](NC(=O)[C@H](C(C)C)N(C)C(=O)OCc1ccc(NC(=O)[C@H](CCCNC(N)=O)NC(=O)[C@@H](NC(=O)CCCCCN2C(=O)CC(SCCC(=O)NCCOCCOCCC(=O)NCCCC[C@H](NC(C)=O)C(=O)N3CCC[C@H]3C(=O)N[C@@H](CC(C)C)C(=O)N3CCC[C@H]3C(=O)N(C)[C@@H](CCCNC(=N)N)C(=O)N[C@H](C(=O)N[C@@H](CCCNC(=N)N)C(=O)N[C@@H](Cc3ccc(O)cc3)C(=O)O)C(C)(C)C)C2=O)C(C)C)cc1)C(C)C` (some centres unmarked) [Compound 94] are within 1.5-fold of each other in IC50: 60.1 nM for the first, 52.5 nM for the second.

First: CO[C@H]1C(=O)[C@]2(C)[C@@H](OC)C[C@H]3OC[C@@]3(OC(C)=O)[C@H]2[C@H](OC(=O)c2ccccc2)[C@]2(O)C[C@H](OC(=O)[C@H](OC(=O)N(C)CCN(C)C(=O)OCc3ccc(NC(=O)[C@H](CCCNC(N)=O)NC(=O)[C@@H](NC(=O)CCCCCN4C(=O)CC(SC(C)(C)[C@H](NC(C)=O)C(=O)N5CCC[C@H]5C(=O)N[C@@H](CC(C)C)C(=O)N5CCC[C@H]5C(=O)N[C@@H](CCCNC(=N)N)C(=O)N[C@H](C(=O)N[C@@H](CCCNC(=N)N)C(=O)N[C@@H](Cc5ccc(O)cc5)C(=O)O)C(C)(C)C)C4=O)C(C)C)cc3)[C@@H](NC(=O)OC(C)(C)C)c3ccccc3)C(C)=C1C2(C)C (some centres unmarked) [Compound 73]
Second: CO[C@H]1C(=O)[C@]2(C)[C@@H](OC)C[C@H]3OC[C@@]3(OC(C)=O)[C@H]2[C@H](OC(=O)c2ccccc2)[C@]2(O)C[C@H](OC(=O)[C@H](OC(=O)N(C)CCCNC(=O)CNC(=O)[C@H](CC(C)C)NC(=O)[C@H](Cc3ccccc3)NC(=O)CNC(=O)CCCCCN3C(=O)CC(SCCC(=O)NCCCC[C@H](NC(C)=O)C(=O)N4CCC[C@H]4C(=O)N[C@@H](CC(C)C)C(=O)N4CCC[C@H]4C(=O)N(C)[C@@H](CCCNC(=N)N)C(=O)N[C@H](C(=O)N[C@@H](CCCNC(=N)N)C(=O)N[C@@H](Cc4ccc(O)cc4)C(=O)O)C(C)(C)C)C3=O)[C@@H](NC(=O)OC(C)(C)C)c3ccccc3)C(C)=C1C2(C)C (some centres unmarked) [Compound 74]
The IC50 of the first is lower: 2620 nM for the first, over 10000 nM for the second. The first is the more potent here.

Compared with `COc1cccc2c1C(=O)c1c(O)c3c(c(O)c1C2=O)C[C@@](O)(C(=O)CO)C[C@@H]3O[C@H]1C[C@H](NC(=O)OCCSSC(C)(C)[C@H](NC(C)=O)C(=O)N2CCC[C@H]2C(=O)N[C@@H](CC(C)C)C(=O)N2CCC[C@H]2C(=O)N[C@@H](CCCNC(=N)N)C(=O)N[C@H](C(=O)N[C@@H](CCCNC(=N)N)C(=O)N[C@@H](Cc2ccc(O)cc2)C(=O)O)C(C)(C)C)[C@H](O)[C@H](C)O1` [Compound 88], `CC(=O)N[C@H](C(=O)N1CCC[C@H]1C(=O)N[C@@H](CC(C)C)C(=O)N1CCC[C@H]1C(=O)N[C@@H](CCCNC(=N)N)C(=O)N[C@H](C(=O)N[C@@H](CCCNC(=N)N)C(=O)N[C@@H](Cc1ccc(O)cc1)C(=O)O)C(C)(C)C)C(C)(C)SC1CC(=O)N(CCCCCC(=O)N[C@@H](Cc2ccccc2)C(=O)N[C@@H](CC(C)C)B2O[C@@H]3[C@@H]4C[C@H](C[C@]3(C)O2)C4(C)C)C1=O` (some centres unmarked) [Compound 69] is higher in IC50: 1940 nM for the first, over 10000 nM for the second.

Compared with `COc1cc2cc(c1Cl)N(C)C(=O)C[C@H](OC(=O)[C@H](C)N(C)C(=O)CCSC1CC(=O)N(CCCNC(=O)CNC(=O)[C@H](CC(C)C)NC(=O)[C@H](Cc3ccccc3)NC(=O)CNC(=O)CCCCCN3C(=O)CC(SCCC(=O)NCCOCCOCCOCCOCCC(=O)NCCCC[C@H](NC(C)=O)C(=O)N4CCC[C@H]4C(=O)N[C@@H](CC(C)C)C(=O)N4CCC[C@H]4C(=O)N(C)[C@@H](CCCNC(=N)N)C(=O)N[C@H](C(=O)N[C@@H](CCCNC(=N)N)C(=O)N[C@@H](Cc4ccc(O)cc4)C(=O)O)C(C)(C)C)C3=O)C1=O)[C@]1(C)O[C@H]1[C@H](C)[C@@H]1C[C@@](O)(NC(=O)O1)[C@H](OC)/C=C/C=C(\C)C2` (some centres unmarked) [Compound 84], `CCc1c2c(nc3ccc(O)cc13)-c1cc3c(c(=O)n1C2)COC(=O)[C@@]3(CC)OC(=O)CNC(=O)CNC(=O)[C@H](CC(C)C)NC(=O)[C@H](Cc1ccccc1)NC(=O)CNC(=O)CCCCCN1C(=O)CC(SC(C)(C)[C@H](NC(C)=O)C(=O)N2CCC[C@H]2C(=O)N[C@@H](CC(C)C)C(=O)N2CCC[C@H]2C(=O)N[C@@H](CCCNC(=N)N)C(=O)N[C@H](C(=O)N[C@@H](CCCNC(=N)N)C(=O)N[C@@H](Cc2ccc(O)cc2)C(=O)O)C(C)(C)C)C1=O` (some centres unmarked) [Compound 99] is 16-fold higher in IC50: 48.5 nM for the first, 784 nM for the second.

same assay, conditions: NTSR1 targeted compound; 72 hrs; read-out: SW-48 proliferation IC50

`CO[C@H]1C(=O)[C@]2(C)[C@@H](OC)C[C@H]3OC[C@@]3(OC(C)=O)[C@H]2[C@H](OC(=O)c2ccccc2)[C@]2(O)C[C@H](OC(=O)[C@H](OC(=O)N(C)CCN(C)C(=O)OCc3ccc(NC(=O)[C@H](CCCNC(N)=O)NC(=O)[C@@H](NC(=O)CCCCCN4C(=O)CC(SC(C)(C)[C@H](NC(C)=O)C(=O)N5CCC[C@H]5C(=O)N[C@@H](CCCNC(=N)N)C(=O)N[C@@H](CCCNC(=N)N)C(=O)N5CCC[C@H]5C(=O)N[C@@H](Cc5ccc(O)cc5)C(=O)N[C@H](C(=O)N[C@@H](CC(C)C)C(=O)O)C(C)(C)C)C4=O)C(C)C)cc3)[C@@H](NC(=O)OC(C)(C)C)c3ccccc3)C(C)=C1C2(C)C` (some centres unmarked) [Compound 5] and `CO[C@H]1C(=O)[C@]2(C)[C@@H](OC)C[C@H]3OC[C@@]3(OC(C)=O)[C@H]2[C@H](OC(=O)c2ccccc2)[C@]2(O)C[C@H](OC(=O)[C@H](OC(=O)N(C)CCN(C)C(=O)OCc3ccc(NC(=O)[C@H](CCCNC(N)=O)NC(=O)[C@@H](NC(=O)CCCCCN4C(=O)CC(SC(C)(C)[C@H](NC(C)=O)C(=O)N5CCC[C@H]5C(=O)N[C@@H](CCCCN)C(=O)N(C)[C@@H](CCCNC(=N)N)C(=O)N5CCC[C@H]5C(=O)N[C@@H](Cc5ccc(O)cc5)C(=O)N[C@H](C(=O)N[C@@H](CC(C)C)C(=O)O)C(C)(C)C)C4=O)C(C)C)cc3)[C@@H](NC(=O)OC(C)(C)C)c3ccccc3)C(C)=C1C2(C)C` (some centres unmarked) [Compound 8] are within 1.5-fold of each other in IC50: 1700 nM for the first, 2450 nM for the second.

First: CO[C@H]1C(=O)[C@]2(C)[C@@H](OC)C[C@H]3OC[C@@]3(OC(C)=O)[C@H]2[C@H](OC(=O)c2ccccc2)[C@]2(O)C[C@H](OC(=O)[C@H](OC(=O)N(C)CCCNC(=O)CNC(=O)[C@H](CC(C)C)NC(=O)[C@H](Cc3ccccc3)NC(=O)CNC(=O)CCCCCN3C(=O)CC(SCCC(=O)NCCCC[C@H](NC(C)=O)C(=O)N4CCC[C@H]4C(=O)N(C)[C@@H](CCCNC(=N)N)C(=O)N[C@@H](CCCNC(=N)N)C(=O)N4CCC[C@H]4C(=O)N[C@@H](Cc4ccc(O)cc4)C(=O)N[C@H](C(=O)N[C@@H](CC(C)C)C(=O)O)C(C)(C)C)C3=O)[C@@H](NC(=O)OC(C)(C)C)c3ccccc3)C(C)=C1C2(C)C (some centres unmarked) [Compound 9]
Second: COc1cc2cc(c1Cl)N(C)C(=O)C[C@H](OC(=O)[C@H](C)N(C)C(=O)CCSC1CC(=O)N(CCCNC(=O)CNC(=O)[C@H](CC(C)C)NC(=O)[C@H](Cc3ccccc3)NC(=O)CNC(=O)CCCCCN3C(=O)CC(SCCC(=O)NCCCC[C@H](NC(C)=O)C(=O)N4CCC[C@H]4C(=O)N(C)[C@@H](CCCNC(=N)N)C(=O)N[C@@H](CCCNC(=N)N)C(=O)N4CCC[C@H]4C(=O)N[C@@H](Cc4ccc(O)cc4)C(=O)N[C@H](C(=O)N[C@@H](CC(C)C)C(=O)O)C(C)(C)C)C3=O)C1=O)[C@]1(C)O[C@H]1[C@H](C)[C@@H]1C[C@@](O)(NC(=O)O1)[C@H](OC)/C=C/C=C(\C)C2 (some centres unmarked) [Compound 23]
The IC50 of the first is higher: over 10000 nM for the first, 38.6 nM for the second.

Going from `CCc1c2c(nc3ccc(O)cc13)-c1cc3c(c(=O)n1C2)COC(=O)[C@@]3(CC)OC(=O)CNC(=O)CNC(=O)[C@H](CC(C)C)NC(=O)[C@H](Cc1ccccc1)NC(=O)CNC(=O)CCCCCN1C(=O)CC(SC(C)(C)[C@H](NC(C)=O)C(=O)N2CCC[C@H]2C(=O)N(C)[C@@H](CCCNC(=N)N)C(=O)N[C@@H](CCCNC(=N)N)C(=O)N2CCC[C@H]2C(=O)N[C@@H](Cc2ccc(O)cc2)C(=O)N[C@H](C(=O)N[C@@H](CC(C)C)C(=O)O)C(C)(C)C)C1=O` (stereo partly drawn) [Compound 67] (I: Ac-[Pen]P[NMeR]RPY[Tle]L-OH / II: GFLGG-{SN38(20-O)}; linker I:1-II:N via Hexanoyl(6-succinimido-3yl)) to `COc1cc2cc(c1Cl)N(C)C(=O)C[C@H](OC(=O)[C@H](C)N(C)C(=O)CCSC1CC(=O)N(CCCNC(=O)CNC(=O)[C@H](CC(C)C)NC(=O)[C@H](Cc3ccccc3)NC(=O)CNC(=O)CCCCCN3C(=O)CC(SCCC(=O)NCCOCCOCCOCCOCCC(=O)NCCCC[C@H](NC(C)=O)C(=O)N4CCC[C@H]4C(=O)N(C)[C@@H](CCCNC(=N)N)C(=O)N[C@@H](CCCNC(=N)N)C(=O)N4CCC[C@H]4C(=O)N[C@@H](Cc4ccc(O)cc4)C(=O)N[C@H](C(=O)N[C@@H](CC(C)C)C(=O)O)C(C)(C)C)C3=O)C1=O)[C@]1(C)O[C@H]1[C@H](C)[C@@H]1C[C@@](O)(NC(=O)O1)[C@H](OC)/C=C/C=C(\C)C2` (some centres unmarked) [Compound 25], the IC50 falls from 816 nM to 2.2 nM (370-fold). The second is the more potent here.
